Source: patent publication US11980613B2, “Methods for reversing HIV latency using BAF complex modulating compounds” (priority 2018, dated 2024)

System: latent HIV-1 in ex vivo infected human CD4+ T cells
Assay: Ex vivo HIV latency model (Lassen), luciferase readout
Assay type: cell-based
Experimental: [drawing 27] i. BRD-K25923209: To Macrocycle 2141-039b (0.804 g, 1.550 mmol) dissolved in MeOH (Volume: 15.50 ml) was added tin(II) chloride dihydrate (3.50 g, 15.50 mmol). […] Upon completion, the reaction mixture was concentrated and the resulting residue was dissolved in EtOAc and washed with 2 M aq. KOH (2×). The combined aqueous layers were washed with EtOAc (4×). The resulting organic layers were washed with brine, saturated aqueous NaHCO3, water, and brine, dried over MgSO4, filtered, and concentrated. […] BRD-K80443127: A screwtop vial was charged with aniline (BRD-K25923209) (43.3 mg, 0.089 mmol) and CH2Cl2 (Volume: 886 μl, Density: 1.325 g/ml). Isopropyl chloroformate (115 μl, 0.115 mmol) and DIEA (46.4 μl, 0.266 mmol) were added dropwise and reaction stirred under ambient conditions for 1 h. […] BRD-K04244835: A 2.5 mL microwave vial was charged with aniline (BRD-K25923209) (40 mg, 0.082 mmol) and EtOH (Volume: 819 μl, Density: 0.81 g/ml). Squaramide (CRE-III-001) (20.75 mg, 0.098 mmol), DIEA (42.8 μl, 0.246 mmol), and DMAP (2.000 mg, 0.016 mmol) were added in sequence and the vial was sealed. […] 9. […] 10. […] 11.

CO[C@H]1CN(C)C(=O)c2cc(NC(=O)OC(C)C)ccc2OC[C@H](C)N(Cc2ccc(-c3ccccn3)cc2)C[C@@H]1C [BRD-K80443127]
latency reversal (transcription of latent HIV-1) (24 h treatment): efficiently triggered HIV transcription | latency reversal in combination with other latency reversal agents (compared to single agent treatments): potentiated the effect of other latency reversal agents
